Results from ChEMBL document CHEMBL1201862, “PubChem BioAssay data set” (2004).
Active and inactive are the calls of the source.

What was measured:
[1] = target: T1, Delta-type opioid receptor (Homo sapiens, UniProt P41143); test: delta opioid receptor blockers – image-based, SAR follow-up (AID 2357); assay type: functional
[2] = target: T2, Kappa-type opioid receptor (Homo sapiens, UniProt P41145); test: kappa opioid receptor activation potency – imaging, image-based, SAR follow-up (AID 2359); assay type: functional
T2 sequence (P41145 whole entry): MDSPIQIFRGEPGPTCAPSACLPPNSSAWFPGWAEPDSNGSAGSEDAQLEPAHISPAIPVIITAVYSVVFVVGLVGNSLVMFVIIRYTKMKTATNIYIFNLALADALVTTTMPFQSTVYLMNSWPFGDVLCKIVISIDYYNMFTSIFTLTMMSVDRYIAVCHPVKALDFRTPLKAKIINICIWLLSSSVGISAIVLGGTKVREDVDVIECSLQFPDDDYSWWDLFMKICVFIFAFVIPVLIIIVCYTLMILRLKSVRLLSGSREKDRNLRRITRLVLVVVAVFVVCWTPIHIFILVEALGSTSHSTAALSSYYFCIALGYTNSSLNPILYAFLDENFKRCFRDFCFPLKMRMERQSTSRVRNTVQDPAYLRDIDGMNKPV

[3] = target: T3, Mu-type opioid receptor (Homo sapiens, UniProt P35372); test: mu opioid receptor blockers – image-based, SAR follow-up (AID 2420); assay type: functional;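 note: compounds added before stimulation of receptor with agonist DAMGO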
T3 sequence (P35372 whole entry): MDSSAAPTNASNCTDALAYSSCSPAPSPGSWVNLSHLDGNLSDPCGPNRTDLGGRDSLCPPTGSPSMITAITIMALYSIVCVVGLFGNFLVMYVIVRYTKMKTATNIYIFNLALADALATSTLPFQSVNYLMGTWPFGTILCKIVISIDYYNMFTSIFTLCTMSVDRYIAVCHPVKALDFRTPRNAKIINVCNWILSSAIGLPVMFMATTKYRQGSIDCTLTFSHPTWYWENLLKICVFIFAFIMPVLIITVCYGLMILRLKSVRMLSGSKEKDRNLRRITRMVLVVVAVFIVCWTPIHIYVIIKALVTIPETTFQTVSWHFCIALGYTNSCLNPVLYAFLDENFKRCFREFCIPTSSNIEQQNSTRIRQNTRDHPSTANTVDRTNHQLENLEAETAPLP

[4] = target: T2, Kappa-type opioid receptor; test: kappa opioid receptor blockers, cell-based, luminescence, beta-arrestin, SAR follow-up (AID 2285); assay type: functional
[5] = target: T1, Delta-type opioid receptor; test: DOR agonists, SAR follow-up, image-based (AID 2370); assay type: functional
[6] = target: T3, Mu-type opioid receptor; test: mu opioid receptor activators, image-based, SAR follow-up (AID 2352); assay type: functional
[7] = target: T2, Kappa-type opioid receptor; test: kappa opioid receptor blockers, image-based, SAR follow-up (AID 2348); assay type: functional
[8] = cells; assay type: functional, cell-based
[9] = target: Lysine-specific demethylase 4C (Homo sapiens, UniProt Q9H3R0); test: inhibition of JMJD2C H3K9me3 demethylation – biochemical, DELFIA europium, cherry-picked samples, dose response (AID 488835); assay type: functional
Sequence of Lysine-specific demethylase 4C (Q9H3R0 whole entry): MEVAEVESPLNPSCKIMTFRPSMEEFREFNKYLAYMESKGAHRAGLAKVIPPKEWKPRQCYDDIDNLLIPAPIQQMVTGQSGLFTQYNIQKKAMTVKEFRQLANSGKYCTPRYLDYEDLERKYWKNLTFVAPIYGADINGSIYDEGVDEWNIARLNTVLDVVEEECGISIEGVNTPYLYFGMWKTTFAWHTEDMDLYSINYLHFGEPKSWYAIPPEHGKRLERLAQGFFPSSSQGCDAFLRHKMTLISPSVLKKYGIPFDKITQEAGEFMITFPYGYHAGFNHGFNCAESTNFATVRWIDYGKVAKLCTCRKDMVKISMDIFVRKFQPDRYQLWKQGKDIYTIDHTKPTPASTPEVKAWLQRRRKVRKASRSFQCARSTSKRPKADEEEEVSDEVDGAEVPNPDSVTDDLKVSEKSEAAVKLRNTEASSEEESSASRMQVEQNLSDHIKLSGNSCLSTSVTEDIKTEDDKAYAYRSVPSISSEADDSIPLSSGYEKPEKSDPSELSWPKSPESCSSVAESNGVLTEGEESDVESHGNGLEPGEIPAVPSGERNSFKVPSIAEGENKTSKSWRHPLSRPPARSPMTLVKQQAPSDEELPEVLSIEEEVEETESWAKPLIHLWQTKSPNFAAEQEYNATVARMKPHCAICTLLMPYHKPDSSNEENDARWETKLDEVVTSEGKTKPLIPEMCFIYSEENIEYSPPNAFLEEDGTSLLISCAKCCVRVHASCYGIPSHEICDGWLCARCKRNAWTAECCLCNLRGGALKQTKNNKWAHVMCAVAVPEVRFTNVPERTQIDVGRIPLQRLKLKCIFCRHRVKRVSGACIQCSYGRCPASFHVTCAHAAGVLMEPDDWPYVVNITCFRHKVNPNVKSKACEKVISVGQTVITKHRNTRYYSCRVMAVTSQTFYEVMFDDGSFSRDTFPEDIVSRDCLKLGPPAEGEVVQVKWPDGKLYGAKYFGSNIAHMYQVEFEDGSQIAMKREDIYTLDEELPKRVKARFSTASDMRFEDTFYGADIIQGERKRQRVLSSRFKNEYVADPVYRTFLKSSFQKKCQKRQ

[10] = tested on: HEK293; test: EBV LMP1 TES2 canonical NF-kB signalling blockers – cell-based, HEK293, luciferase, cherry-pick, dose response (AID 588343); assay type: functional; conditions: Homo sapiens
[11] = cells; assay type: functional, cell-based; remark: listed apart in the source
[12] = tested on: INS1; test: INS-1E survival protection against cytokine death – cell-based, luminescence, retest, dose response (AID 449756); assay type: functional; conditions: Rattus norvegicus;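 note: cell death triggered by IL-1 beta plus TNF-alpha plus IFN-gamma mixture; protective hits raise ATP signal compared with cytokine alone wells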
[13] = target: T4, Probable nicotinate-nucleotide adenylyltransferase (Staphylococcus aureus (strain N315), UniProt P65502); assay type: functional, Staphylococcus aureus subsp. aureus N315;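 for IC50 Mean: confirmatory dose-response retesting of NadD inhibitor hits first found in an ultra-high-throughput screen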
T4 sequence (P65502 whole entry): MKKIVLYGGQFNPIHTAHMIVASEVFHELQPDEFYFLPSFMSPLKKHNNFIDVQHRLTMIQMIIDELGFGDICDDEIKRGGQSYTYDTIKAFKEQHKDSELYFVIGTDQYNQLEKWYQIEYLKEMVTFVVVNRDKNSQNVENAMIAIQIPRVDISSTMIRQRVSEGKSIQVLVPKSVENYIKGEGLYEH

[14] = target: G-protein coupled receptor 55 (Homo sapiens, UniProt Q9Y2T6); test: blockers of GPR55 signalling, imaged – imaging, image-based, counter-screen for GPR35 antagonist project, SAR follow-up (AID 2397); assay type: functional
Sequence of G-protein coupled receptor 55 (Q9Y2T6 whole entry): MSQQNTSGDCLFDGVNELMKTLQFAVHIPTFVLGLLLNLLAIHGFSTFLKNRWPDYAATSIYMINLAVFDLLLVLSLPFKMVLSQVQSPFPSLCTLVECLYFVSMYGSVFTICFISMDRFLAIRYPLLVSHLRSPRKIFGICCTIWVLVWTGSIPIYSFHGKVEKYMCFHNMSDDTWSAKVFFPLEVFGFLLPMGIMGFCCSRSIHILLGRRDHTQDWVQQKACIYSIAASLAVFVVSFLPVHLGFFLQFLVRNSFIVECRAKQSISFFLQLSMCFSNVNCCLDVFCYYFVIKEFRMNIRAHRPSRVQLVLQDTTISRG

[15] = target: T4, Probable nicotinate-nucleotide adenylyltransferase; assay type: functional, Staphylococcus aureus subsp. aureus N315; conditions: read-out: IC50_Mean
[16] = CCR5-tropic HIV-1 fusion blockers – cell-based, CCR5-tropic Env, dose response (AID 2279); assay type: functional
[17] = target: Exodeoxyribonuclease V (Escherichia coli (strain K12), UniProt P04993+P07648+P08394); test: RecBCD inhibition via phage-restricted bacterial growth – absorbance, V66 E. coli, mutant T4 phage, counter-screen for AddAB inhibitor project, dose response (AID 492957); assay type: functional, cell-based, Escherichia coli str. K-12 substr. MG1655
[18] = target: Mitochondrial peptide methionine sulfoxide reductase (Bos taurus, UniProt P54149); test: Absorbance-based biochemical high throughput dose response assay for activators of Methionine sulfoxide reductase A (MsrA).; assay type: functional
Sequence of Mitochondrial peptide methionine sulfoxide reductase (P54149 whole entry): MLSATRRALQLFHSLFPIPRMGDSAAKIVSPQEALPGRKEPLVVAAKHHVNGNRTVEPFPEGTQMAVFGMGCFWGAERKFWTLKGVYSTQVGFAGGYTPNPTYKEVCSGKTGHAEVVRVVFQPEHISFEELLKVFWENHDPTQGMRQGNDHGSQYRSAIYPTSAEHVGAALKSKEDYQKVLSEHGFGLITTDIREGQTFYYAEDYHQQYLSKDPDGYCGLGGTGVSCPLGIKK

[19] = target: T5, Sentrin-specific protease 8 (Homo sapiens, UniProt Q96LD8); assay type: functional;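 note: luminescence read-out of SENP8 inhibition, dose-response confirmation following an ultra-high-throughput screen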
T5 sequence (Q96LD8 whole entry): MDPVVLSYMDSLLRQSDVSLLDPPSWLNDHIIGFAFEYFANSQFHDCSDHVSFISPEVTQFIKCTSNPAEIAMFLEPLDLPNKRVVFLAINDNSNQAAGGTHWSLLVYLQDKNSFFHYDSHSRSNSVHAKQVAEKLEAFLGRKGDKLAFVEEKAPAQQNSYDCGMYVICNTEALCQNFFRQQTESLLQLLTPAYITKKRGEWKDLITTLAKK

[20] = target: T6, Caspase-3 (Homo sapiens, UniProt P42574); assay type: functional;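 note: Dose-response selectivity test against caspase-3 for candidate inhibitors of sentrin-specific proteases (SENPs)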
T6 sequence (P42574 whole entry): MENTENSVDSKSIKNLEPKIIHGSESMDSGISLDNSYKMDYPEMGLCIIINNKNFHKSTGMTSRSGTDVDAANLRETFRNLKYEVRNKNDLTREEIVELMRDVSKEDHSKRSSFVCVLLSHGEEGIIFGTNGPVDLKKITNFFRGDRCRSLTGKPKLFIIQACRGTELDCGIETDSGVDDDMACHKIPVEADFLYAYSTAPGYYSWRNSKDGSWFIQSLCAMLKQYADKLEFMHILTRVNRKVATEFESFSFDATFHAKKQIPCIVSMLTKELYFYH

[21] = Counterscreen for AddAB inhibitors: absorbance-based bacterial cell-based high throughput dose response assay for inhibitors of bacterial viability. [Related pubchem assays (depositor defined):AID435030, AID449728, AID449731, AID488942, AID488955, AID488956]; assay type: functional
[22] = target: T7, Sentrin-specific protease 7 (Homo sapiens, UniProt Q9BQF6); assay type: functional;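 note: Luminescence-based dose-response confirmation of ultra-high-throughput screening hits, measuring inhibition of SENP7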
T7 sequence (Q9BQF6 whole entry): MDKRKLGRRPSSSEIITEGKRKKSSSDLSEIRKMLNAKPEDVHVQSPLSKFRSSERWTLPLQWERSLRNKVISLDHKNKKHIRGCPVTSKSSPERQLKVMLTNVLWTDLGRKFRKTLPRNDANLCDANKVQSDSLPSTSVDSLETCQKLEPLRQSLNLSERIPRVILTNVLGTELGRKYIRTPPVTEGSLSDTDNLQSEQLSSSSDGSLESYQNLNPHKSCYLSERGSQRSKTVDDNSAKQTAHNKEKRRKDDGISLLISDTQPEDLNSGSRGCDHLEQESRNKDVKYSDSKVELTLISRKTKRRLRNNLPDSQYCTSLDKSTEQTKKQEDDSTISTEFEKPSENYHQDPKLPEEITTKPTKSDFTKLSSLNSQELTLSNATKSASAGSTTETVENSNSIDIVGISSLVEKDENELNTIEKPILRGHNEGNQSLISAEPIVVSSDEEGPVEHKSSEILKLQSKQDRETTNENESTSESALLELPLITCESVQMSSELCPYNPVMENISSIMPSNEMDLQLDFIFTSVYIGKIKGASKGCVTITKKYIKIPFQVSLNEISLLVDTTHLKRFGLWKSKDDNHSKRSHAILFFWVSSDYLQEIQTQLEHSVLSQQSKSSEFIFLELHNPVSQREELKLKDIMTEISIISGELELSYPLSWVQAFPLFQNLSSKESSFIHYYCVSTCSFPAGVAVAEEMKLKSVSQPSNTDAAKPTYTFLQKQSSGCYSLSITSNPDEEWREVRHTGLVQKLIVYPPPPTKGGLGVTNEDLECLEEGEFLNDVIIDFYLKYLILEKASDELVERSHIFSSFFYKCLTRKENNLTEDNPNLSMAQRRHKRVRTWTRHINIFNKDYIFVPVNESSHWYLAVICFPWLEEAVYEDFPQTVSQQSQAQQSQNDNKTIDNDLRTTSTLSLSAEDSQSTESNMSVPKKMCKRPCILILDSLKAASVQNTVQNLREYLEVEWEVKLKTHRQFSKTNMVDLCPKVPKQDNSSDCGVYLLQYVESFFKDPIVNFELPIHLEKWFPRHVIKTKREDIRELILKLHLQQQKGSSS

[23] = target: T8, Sentrin-specific protease 6 (Homo sapiens, UniProt Q9GZR1); assay type: functional;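 note: Luminescence-based dose-response confirmatory assay of SENP6 inhibition, following up an ultra-high-throughput screen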
T8 sequence (Q9GZR1 whole entry): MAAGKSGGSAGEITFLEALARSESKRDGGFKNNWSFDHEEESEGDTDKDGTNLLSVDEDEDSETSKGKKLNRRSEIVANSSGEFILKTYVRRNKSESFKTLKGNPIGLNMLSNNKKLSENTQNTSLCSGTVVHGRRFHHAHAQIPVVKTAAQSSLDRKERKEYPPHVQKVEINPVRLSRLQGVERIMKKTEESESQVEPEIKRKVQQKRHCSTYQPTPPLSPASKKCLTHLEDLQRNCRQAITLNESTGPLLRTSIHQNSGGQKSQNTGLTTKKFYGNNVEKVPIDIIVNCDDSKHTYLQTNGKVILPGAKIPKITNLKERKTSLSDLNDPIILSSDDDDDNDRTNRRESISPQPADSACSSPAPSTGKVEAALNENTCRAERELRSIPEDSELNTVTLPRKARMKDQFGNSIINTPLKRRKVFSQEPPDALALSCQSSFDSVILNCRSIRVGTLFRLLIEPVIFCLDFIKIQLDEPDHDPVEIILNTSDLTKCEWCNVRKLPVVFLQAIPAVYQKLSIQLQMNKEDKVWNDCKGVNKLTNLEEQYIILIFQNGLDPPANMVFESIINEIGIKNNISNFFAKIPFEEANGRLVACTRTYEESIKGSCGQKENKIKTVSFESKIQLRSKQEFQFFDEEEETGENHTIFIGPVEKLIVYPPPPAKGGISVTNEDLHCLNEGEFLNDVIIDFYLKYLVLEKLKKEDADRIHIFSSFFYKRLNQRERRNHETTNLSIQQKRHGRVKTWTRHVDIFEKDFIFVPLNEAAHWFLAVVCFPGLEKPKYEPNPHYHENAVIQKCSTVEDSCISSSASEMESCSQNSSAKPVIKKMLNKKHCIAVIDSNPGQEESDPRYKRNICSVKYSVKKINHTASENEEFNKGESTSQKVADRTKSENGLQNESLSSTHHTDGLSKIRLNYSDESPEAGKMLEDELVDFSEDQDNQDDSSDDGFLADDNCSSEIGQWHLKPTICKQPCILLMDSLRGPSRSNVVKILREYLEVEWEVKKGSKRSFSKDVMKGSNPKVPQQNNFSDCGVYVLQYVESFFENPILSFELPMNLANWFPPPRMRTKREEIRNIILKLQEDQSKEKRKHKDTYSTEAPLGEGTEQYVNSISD

[24] = target: Genome polyprotein (Hepatitis C virus, UniProt Q2Q167); test: disruption of hepatitis C core self-association – biochemical, TR-FRET, dose response (AID 2159); parameters: species or system Hepacivirus hominis;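 note: blocks dimerization of HCV core protein measured by TR-FRET between tagged core106 pairs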
Sequence of Genome polyprotein (Q2Q167 whole entry): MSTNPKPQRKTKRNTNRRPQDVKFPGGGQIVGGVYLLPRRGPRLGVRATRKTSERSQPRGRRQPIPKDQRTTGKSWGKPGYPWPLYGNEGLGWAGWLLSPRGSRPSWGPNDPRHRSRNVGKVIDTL

[25] = viability of HCT116 lacking mutant beta-catenin – cell-based, human colon tumor, dose response (AID 1045); assay type: functional;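 note: HCT116 colon tumor cells with beta catenin knocked out; cells exposed to compound for 60 hours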
[26] = viability of PTEN-deleted HCT116 cells – cell-based, HCT116 PTEN knockout, dose response (AID 1047); assay type: functional;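 note: HCT116 colon tumor cells with PTEN knocked out; cells exposed to compound for 60 hours before readout; potency for loss of cell viability measured by luminescence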
[27] = restored growth of temperature-sensitive Burl-1 yeast – whole organism, S. cerevisiae, Burl-1 ts mutant, luminescence, counter-screen for SUMOylation pathway inhibitor project, dose response (AID 463199); assay type: functional

T1 sequence (P41143 whole entry): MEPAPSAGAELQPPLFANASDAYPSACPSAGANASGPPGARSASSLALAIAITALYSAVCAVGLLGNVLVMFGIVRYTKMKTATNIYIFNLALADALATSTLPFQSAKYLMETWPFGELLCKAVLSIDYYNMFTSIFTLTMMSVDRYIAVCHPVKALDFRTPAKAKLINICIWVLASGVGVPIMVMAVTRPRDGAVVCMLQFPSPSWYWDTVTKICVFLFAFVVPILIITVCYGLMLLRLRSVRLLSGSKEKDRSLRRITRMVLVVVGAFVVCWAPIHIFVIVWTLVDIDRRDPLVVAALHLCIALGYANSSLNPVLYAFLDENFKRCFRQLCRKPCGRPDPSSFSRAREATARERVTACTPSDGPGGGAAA

## CC(=O)c1ccc(S(=O)(=O)NCc2ccc(C(=O)N(C)CC(=O)Nc3cccc(F)c3)cc2)cc1
[1]
  IC50: > 32 µM (inactive)
[2]
  EC50: > 32 µM (inactive)
[3]
  IC50: > 32 µM (inactive)
[4]
  IC50: > 10 µM (inactive)
[5]
  EC50: > 32 µM (inactive)
[6]
  EC50: > 32 µM (inactive)
[7]
  IC50: > 32 µM (inactive)

## COc1cccc(/C=N/Nc2nc3ccccc3[nH]2)c1O
[8]
  EC50: 26.6 µM (active)
[9]
  AC50: 8.63 µM (active)
[10]
  AC50: 3.34 µM (active)
[11]
  EC50: > 350 µM (not active)
[12]
  AC50: 2.22 µM (active)

## CCC(Sc1nc2ccsc2c(=O)n1Cc1ccc(C(=O)O)cc1)C(=O)Nc1ccc(C)c(Cl)c1 (configuration not stated)
[13]
  IC50: 6.61 µM (active)
[14]
  IC50: 14.9 µM (inactive)
[15]
  IC50: 38.6 µM (active)
[16]
  IC50: 47.7 µM (active)

## O=C(COC(=O)c1ccc([N+](=O)[O-])s1)c1ccc[nH]1
[17]
  IC50: > 119 µM (inactive)
[18]
  EC50: 15.8 µM (inactive)
[19]
  IC50: 5.37 µM (active)
[20]
  IC50: 10.2 µM (active)
[21]
  IC50: 104 µM (inactive)
[22]
  IC50: 18.4 µM (active)
[23]
  IC50: 6.52 µM (active)

## O=C(N/N=C/C(Br)=C/c1ccccc1)c1[nH]nc2c1CCC2
[24]
  IC50: > 49.8 µM (not active)
[25]
  EC50: < 0.059 µM (active)
[26]
  EC50: < 0.059 µM (active)
[27]
  AC50: 120 µM (active)
